Assay results published in publication PMC4685510, “A Cell Biologist’s Field Guide to Aurora Kinase Inhibitors” (Frontiers in Oncology, 2015).
Where two headings read alike, the source gives them in different places.

Columns and labels:
Assay in all cases: biochemical
Format in all cases: biochemical
[1] = molecular target: 363 human kinases (including Aurora A/B/C) (Homo sapiens, UniProt O75676); settings: MSK2/RPS6KA4; for remaining activity at 0.1 µM: 100 nM; for remaining activity at 0.1 µM / remaining activity at 0.5 µM: read-out: % Enzyme Activity (relative to DMSO controls)
Description: (§1) However, the Aurora A/B selectivity ratios derived from our in vitro and in vivo data can be compared to prioritize inhibitors.

[2] = molecular target: 363 human kinases (including Aurora A/B/C) (Homo sapiens, UniProt P06493); settings: for remaining activity at 0.1 µM: 100 nM; for remaining activity at 0.1 µM / remaining activity at 0.5 µM: read-out: % Enzyme Activity (relative to DMSO controls); for remaining activity at 0.5 µM / % Enzyme Activity (relative to DMSO controls): 500 nM
Description: as §1

[3] = molecular target: 363 human kinases (including Aurora A/B/C) (Homo sapiens, UniProt P11309); settings: PIM1; for remaining activity at 0.1 µM: 100 nM; for remaining activity at 0.1 µM / remaining activity at 0.5 µM: read-out: % Enzyme Activity (relative to DMSO controls)
Description: as §1

[4] = molecular target: T1, 363 human kinases (including Aurora A/B/C) (Homo sapiens, UniProt P29320); settings: EPHA3, [ATP] 50 µM; for remaining activity at 0.1 µM: 100 nM; for remaining activity at 0.1 µM / remaining activity at 0.5 µM: read-out: % Enzyme Activity (relative to DMSO controls)
T1 sequence (P29320 21-983): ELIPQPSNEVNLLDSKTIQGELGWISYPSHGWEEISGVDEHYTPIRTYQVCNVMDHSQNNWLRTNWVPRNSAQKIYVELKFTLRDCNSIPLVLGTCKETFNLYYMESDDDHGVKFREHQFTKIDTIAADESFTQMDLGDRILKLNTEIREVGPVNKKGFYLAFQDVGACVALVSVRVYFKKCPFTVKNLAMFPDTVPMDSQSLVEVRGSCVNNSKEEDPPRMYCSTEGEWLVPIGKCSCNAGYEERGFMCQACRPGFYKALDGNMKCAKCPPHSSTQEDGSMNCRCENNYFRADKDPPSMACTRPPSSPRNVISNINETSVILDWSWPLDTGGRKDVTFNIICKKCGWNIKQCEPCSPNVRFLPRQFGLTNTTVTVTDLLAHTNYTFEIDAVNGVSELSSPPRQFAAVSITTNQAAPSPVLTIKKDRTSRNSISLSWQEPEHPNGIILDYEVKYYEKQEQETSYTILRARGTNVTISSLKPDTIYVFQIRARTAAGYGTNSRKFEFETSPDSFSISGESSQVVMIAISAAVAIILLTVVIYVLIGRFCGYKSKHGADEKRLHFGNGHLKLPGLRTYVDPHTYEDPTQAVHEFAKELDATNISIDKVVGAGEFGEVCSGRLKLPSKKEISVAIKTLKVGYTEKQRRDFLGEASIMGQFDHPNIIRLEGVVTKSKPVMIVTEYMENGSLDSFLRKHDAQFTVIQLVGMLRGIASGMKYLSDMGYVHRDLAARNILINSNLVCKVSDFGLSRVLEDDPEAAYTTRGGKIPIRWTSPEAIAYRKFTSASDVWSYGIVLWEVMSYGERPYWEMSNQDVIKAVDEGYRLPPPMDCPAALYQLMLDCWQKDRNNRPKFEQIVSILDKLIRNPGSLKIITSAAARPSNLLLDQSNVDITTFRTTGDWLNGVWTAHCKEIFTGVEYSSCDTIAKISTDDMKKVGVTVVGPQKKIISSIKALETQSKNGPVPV
Description: as §1

[5] = molecular target: 363 human kinases (including Aurora A/B/C) (Homo sapiens, UniProt P45984); settings: JNK2; for remaining activity at 0.1 µM: 100 nM; for remaining activity at 0.1 µM / remaining activity at 0.5 µM: read-out: % Enzyme Activity (relative to DMSO controls)
Description: as §1

[6] = molecular target: T2, 363 human kinases (including Aurora A/B/C) (Homo sapiens, UniProt Q8IVT5); settings: KSR1; for remaining activity at 0.1 µM: 100 nM; for remaining activity at 0.1 µM / remaining activity at 0.5 µM: read-out: % Enzyme Activity (relative to DMSO controls)
T2 sequence (Q8IVT5 1-923): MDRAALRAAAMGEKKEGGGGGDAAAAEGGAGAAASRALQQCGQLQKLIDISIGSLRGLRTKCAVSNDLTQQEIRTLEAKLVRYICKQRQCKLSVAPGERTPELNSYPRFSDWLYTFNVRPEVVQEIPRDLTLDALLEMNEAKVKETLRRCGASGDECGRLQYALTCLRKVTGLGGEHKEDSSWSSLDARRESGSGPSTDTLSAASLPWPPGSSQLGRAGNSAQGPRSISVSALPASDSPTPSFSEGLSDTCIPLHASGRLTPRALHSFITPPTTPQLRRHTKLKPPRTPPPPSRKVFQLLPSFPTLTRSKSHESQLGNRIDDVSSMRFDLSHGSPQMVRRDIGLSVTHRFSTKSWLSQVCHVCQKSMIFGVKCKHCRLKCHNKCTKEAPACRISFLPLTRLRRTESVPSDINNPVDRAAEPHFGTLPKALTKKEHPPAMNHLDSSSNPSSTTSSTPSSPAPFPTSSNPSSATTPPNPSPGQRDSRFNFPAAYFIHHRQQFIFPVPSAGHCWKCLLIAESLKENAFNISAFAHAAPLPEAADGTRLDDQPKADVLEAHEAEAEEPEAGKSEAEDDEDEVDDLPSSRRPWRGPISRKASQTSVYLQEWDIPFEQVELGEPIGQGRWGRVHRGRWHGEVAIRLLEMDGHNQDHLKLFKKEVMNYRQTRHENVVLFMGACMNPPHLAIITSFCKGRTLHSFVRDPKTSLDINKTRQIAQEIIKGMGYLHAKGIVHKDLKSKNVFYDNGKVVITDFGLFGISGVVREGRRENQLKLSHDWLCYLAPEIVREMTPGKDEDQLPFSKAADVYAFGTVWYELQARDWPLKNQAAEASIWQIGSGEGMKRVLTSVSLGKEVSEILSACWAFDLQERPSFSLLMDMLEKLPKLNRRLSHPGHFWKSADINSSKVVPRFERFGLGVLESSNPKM
Description: as §1

[7] = molecular target: T3, 363 human kinases (including Aurora A/B/C) (Homo sapiens, UniProt Q9NWZ3); settings: IRAK4; for remaining activity at 0.1 µM: 100 nM; for remaining activity at 0.1 µM / remaining activity at 0.5 µM: read-out: % Enzyme Activity (relative to DMSO controls)
T3 sequence (Q9NWZ3 1-460): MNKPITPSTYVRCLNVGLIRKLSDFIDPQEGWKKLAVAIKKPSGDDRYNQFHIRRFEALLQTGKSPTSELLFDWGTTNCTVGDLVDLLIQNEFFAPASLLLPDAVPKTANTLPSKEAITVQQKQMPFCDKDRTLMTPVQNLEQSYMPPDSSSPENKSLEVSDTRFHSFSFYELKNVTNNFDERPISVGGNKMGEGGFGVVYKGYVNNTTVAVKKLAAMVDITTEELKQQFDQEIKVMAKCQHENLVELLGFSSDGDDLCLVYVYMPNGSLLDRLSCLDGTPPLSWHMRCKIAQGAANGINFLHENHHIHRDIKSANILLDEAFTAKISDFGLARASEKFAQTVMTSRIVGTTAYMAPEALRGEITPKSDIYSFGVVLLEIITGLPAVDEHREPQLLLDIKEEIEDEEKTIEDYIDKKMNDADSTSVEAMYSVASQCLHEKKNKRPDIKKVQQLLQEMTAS
Description: as §1

[8] = molecular target: 363 human kinases (including Aurora A/B/C) (Homo sapiens, UniProt Q9Y5S2); settings: MRCKb/CDC42BPB; for remaining activity at 0.1 µM: 100 nM; for remaining activity at 0.1 µM / remaining activity at 0.5 µM: read-out: % Enzyme Activity (relative to DMSO controls)
363 human kinases (including Aurora A/B/C) (Homo sapiens, UniProt Q9Y5S2), sequence (Q9Y5S2 whole entry): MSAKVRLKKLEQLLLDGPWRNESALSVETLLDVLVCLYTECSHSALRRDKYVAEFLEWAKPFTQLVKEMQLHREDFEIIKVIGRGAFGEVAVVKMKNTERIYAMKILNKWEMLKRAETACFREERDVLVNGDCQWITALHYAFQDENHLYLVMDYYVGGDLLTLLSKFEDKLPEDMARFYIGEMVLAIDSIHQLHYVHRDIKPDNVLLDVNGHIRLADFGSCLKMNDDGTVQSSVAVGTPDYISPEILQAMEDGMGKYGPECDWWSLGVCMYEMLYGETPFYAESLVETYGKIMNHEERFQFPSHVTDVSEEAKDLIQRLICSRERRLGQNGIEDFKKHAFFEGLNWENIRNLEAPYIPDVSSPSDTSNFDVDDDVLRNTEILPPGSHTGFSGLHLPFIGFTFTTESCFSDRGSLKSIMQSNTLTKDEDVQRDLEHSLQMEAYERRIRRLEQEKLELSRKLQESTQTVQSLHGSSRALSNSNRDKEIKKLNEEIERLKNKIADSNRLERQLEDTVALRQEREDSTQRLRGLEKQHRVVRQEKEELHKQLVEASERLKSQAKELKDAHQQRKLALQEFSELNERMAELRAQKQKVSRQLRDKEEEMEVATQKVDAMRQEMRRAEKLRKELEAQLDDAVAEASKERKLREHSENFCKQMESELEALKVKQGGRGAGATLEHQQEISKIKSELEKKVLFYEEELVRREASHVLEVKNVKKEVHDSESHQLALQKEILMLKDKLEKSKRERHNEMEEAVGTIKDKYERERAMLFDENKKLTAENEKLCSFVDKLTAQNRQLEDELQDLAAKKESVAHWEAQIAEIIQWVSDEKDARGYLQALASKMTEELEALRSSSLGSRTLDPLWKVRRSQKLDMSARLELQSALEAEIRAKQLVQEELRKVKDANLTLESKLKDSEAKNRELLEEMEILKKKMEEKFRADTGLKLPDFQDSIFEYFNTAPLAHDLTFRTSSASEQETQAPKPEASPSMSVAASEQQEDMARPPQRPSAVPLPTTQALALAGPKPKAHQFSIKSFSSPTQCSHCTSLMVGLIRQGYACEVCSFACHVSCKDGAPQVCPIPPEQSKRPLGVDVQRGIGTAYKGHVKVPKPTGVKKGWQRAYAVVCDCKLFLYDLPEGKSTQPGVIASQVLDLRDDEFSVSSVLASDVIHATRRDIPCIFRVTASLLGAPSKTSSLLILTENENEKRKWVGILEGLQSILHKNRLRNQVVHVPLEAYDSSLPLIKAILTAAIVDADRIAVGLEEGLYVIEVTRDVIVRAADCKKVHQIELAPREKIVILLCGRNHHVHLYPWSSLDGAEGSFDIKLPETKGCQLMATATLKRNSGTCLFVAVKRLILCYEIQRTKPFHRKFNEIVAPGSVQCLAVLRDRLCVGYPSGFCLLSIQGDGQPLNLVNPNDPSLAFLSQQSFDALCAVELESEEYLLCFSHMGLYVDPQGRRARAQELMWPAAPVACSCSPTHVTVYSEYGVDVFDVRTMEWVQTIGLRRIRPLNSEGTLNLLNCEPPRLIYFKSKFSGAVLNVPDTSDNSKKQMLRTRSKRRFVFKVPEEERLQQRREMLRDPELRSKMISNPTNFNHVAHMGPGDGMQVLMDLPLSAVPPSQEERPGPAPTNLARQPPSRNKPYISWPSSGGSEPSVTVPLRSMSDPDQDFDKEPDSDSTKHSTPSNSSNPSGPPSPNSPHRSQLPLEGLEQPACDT
Description: as §1

363 human kinases (including Aurora A/B/C) (Homo sapiens, UniProt O75676), sequence (O75676 whole entry): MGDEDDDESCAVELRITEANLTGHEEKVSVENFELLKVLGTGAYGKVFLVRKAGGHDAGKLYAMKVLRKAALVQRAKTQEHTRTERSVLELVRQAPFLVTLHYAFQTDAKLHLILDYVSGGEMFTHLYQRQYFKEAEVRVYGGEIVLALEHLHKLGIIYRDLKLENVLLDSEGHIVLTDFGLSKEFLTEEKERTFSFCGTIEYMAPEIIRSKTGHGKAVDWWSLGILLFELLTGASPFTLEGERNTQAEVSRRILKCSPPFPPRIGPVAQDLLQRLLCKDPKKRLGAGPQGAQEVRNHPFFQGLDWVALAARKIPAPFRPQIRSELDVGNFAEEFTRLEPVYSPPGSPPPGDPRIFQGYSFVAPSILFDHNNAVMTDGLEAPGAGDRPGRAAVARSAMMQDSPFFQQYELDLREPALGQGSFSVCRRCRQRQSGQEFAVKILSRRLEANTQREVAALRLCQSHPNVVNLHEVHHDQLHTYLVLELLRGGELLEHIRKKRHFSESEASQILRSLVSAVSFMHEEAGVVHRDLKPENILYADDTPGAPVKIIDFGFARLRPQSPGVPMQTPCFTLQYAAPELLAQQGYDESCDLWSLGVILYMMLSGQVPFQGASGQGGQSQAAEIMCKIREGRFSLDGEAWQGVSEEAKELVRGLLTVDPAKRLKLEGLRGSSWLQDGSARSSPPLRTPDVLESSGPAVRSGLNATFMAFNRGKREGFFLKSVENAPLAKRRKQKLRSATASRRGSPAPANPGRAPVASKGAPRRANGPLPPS
363 human kinases (including Aurora A/B/C) (Homo sapiens, UniProt P06493), sequence (P06493 whole entry): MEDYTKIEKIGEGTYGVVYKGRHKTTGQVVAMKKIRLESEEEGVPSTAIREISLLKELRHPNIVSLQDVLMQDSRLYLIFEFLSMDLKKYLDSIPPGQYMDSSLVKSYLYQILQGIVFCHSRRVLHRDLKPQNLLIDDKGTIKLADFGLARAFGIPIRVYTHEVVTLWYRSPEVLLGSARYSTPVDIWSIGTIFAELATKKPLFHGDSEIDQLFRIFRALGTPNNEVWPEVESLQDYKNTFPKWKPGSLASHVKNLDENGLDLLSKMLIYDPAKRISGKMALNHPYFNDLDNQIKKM
363 human kinases (including Aurora A/B/C) (Homo sapiens, UniProt P11309), sequence (P11309 whole entry): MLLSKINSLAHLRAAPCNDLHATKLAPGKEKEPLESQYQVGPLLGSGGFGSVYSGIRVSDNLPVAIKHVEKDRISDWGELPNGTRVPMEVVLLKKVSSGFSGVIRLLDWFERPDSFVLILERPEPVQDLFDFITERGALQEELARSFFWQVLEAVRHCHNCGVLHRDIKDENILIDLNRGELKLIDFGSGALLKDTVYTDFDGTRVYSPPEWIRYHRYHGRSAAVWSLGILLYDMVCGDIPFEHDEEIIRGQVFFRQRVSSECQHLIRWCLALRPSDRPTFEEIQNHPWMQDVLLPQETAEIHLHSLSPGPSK
363 human kinases (including Aurora A/B/C) (Homo sapiens, UniProt P45984), sequence (P45984 whole entry): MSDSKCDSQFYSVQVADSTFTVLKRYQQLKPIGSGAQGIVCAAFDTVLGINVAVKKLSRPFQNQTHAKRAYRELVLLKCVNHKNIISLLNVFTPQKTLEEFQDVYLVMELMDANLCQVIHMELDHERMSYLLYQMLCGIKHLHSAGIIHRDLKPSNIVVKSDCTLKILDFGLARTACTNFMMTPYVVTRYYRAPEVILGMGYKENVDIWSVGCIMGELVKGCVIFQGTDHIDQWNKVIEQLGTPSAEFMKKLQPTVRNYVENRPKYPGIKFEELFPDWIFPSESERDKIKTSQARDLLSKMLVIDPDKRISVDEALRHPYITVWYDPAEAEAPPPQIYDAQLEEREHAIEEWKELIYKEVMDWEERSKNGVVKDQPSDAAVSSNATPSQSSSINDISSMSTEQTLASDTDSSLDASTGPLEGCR

Row | SMILES | remaining activity at 0.1 µM [1] [%] | remaining activity at 0.1 µM ([2]; CDK1/cyclin A, [ATP] 10 µM) [%] | remaining activity at 0.1 µM ([2]; CDK1/cyclin B, [ATP] 20 µM) [%] | remaining activity at 0.1 µM ([2]; CDK1/cyclin E, [ATP] 20 µM) [%] | remaining activity at 0.1 µM [3] [%] | remaining activity at 0.1 µM [4] [%] | remaining activity at 0.1 µM [5] [%] | remaining activity at 0.1 µM [6] [%] | remaining activity at 0.1 µM [7] [%] | remaining activity at 0.1 µM [8] [%] | remaining activity at 0.5 µM ([1]; 500 nM) [%] | remaining activity at 0.5 µM ([2]; CDK1/cyclin A, [ATP] 10 µM) [%] | remaining activity at 0.5 µM ([2]; CDK1/cyclin B, [ATP] 20 µM) [%] | remaining activity at 0.5 µM ([2]; CDK1/cyclin E, [ATP] 20 µM) [%] | remaining activity at 0.5 µM ([3]; 500 nM) [%] | remaining activity at 0.5 µM ([4]; 500 nM) [%] | remaining activity at 0.5 µM ([5]; 500 nM) [%] | remaining activity at 0.5 µM ([6]; 500 nM) [%] | remaining activity at 0.5 µM ([7]; 500 nM) [%] | remaining activity at 0.5 µM ([8]; 500 nM) [%] | also measured
1 | CCn1cc(-c2ccnc3[nH]c(-c4cccc(CN(C)C)c4)cc23)c(-c2ccc(NC(=O)N(C)C)cc2)n1 [GSK1070916] | 103 | 106 | 84.6 | 100 | 102 | 93.1 | 94.7 | 94.2 | 84.3 | 103 | – | – | – | – | – | – | – | – | – | – | –
2 | O=C(O)[C@]1(Cc2cccc(Nc3nccs3)n2)CC[C@@H](Oc2cccc(Cl)c2F)CC1 [MK-5108] | 103 | 92.7 | 95.3 | 101 | 92 | 67.4 | 95.7 | 98.6 | 47.6 | 90 | 98.8 | 76.5 | 64 | 84.6 | 83.8 | 31.4 | 86.7 | 98 | 25.6 | 104 | –
3 | O=C(c1cccc(Cl)c1F)N1CCN(Cc2cccc(Nc3nccs3)n2)CC1 [MK-8745] | – | – | – | – | – | – | – | – | – | – | 96.1 | 86.8 | 79.4 | 94.9 | 101 | 85.5 | 49.7 | 93.4 | 79.4 | 102 | % Enzyme Activity (relative to DMSO controls) ([1]; 500 nM): 96.01%; % Enzyme Activity (relative to DMSO controls) ([2]; CDK1/cyclin A, [ATP] 10 µM): 86.34%; % Enzyme Activity (relative to DMSO controls) ([2]; CDK1/cyclin B, [ATP] 20 µM): 78.80%; % Enzyme Activity (relative to DMSO controls) ([2]; CDK1/cyclin E, [ATP] 20 µM): 93.92%; % Enzyme Activity (relative to DMSO controls) ([3]; 500 nM): 98.06%; % Enzyme Activity (relative to DMSO controls) ([4]; 500 nM): 84.89%; % Enzyme Activity (relative to DMSO controls) ([5]; 500 nM): 49.53%; % Enzyme Activity (relative to DMSO controls) ([6]; 500 nM): 92.75%; % Enzyme Activity (relative to DMSO controls) ([7]; 500 nM): 79.25%; % Enzyme Activity (relative to DMSO controls) ([8]; 500 nM): 102.30%
